How the values were obtained:
[1] = In vivo circulation of labeled RBCs and lipid retention, flow cytometry, BALB/c mice; conditions: for half-life: both sexes, mouse, whole blood (RBCs), iv, mono- or biexponential decay, summary value, read-out: MFI half life, estimated (extrapolated) terminal (converted)
Protocol: Next, we investigated in vivo retention and longevity of modified RBCs. We used the lipids with the highest labeling efficiency (Figure 2C,D) for in vivo studies: DiI-C18, DiI-C18:2, DiI-C12, Cy3-C12, DiI-PEG3400Mtz, Cy3-DSPE, and Cy3-cholesterol. Labeled RBCs were injected intravenously in BALB/c mice and the circulating levels (percent positive RBCs) and the stability of the lipid (MFI of the labeled population) were analyzed by flow cytometry (Figure 3A). Representative dot plots for DiI-C18 and DiI-C18:2 (Figure 3B) show a distinct population of labeled RBCs at both 1 min (between 9% and 13% of total RBCs) and 3 weeks postinjection. We found differences between lipids in terms of both percent RBC and percent MFI (Figure 3C,D). […] DiI-C18 RBCs had ≈40 days circulation span and only about 33% decrease in MFI at Day 20. […] Cy3-cholesterol RBCs had ≈30 days circulation span, but MFI dropped below 35% at Day 22.
The University of Colorado Institutional Animal Care and Use Committee (IACUC) approved animal experiments (protocol 103 913(11)1D). Mice were treated according to regulations provided by the Office of Laboratory Animal Resources at the University of Colorado. BALB/c and NOD/LtSz-SCID IL2Rγc null (NSG) mice were bred in-house. Mice of 8–10 weeks age (males and females) were used for experiments. Mice were injected intravenously with ≈10^9 RBCs (each strain was injected with RBCs derived from the same strain). At different time intervals, ≈20 μL of blood were obtained with heparinated haematocrit capillary (ThermoFisher) via periorbital plexus. RBCs were resuspended at ≈0.5 million mL^−1 in 1%BSA/PBS and analyzed by Guava easyCyte HT flow cytometer (20 000 RBCs were counted after gating out platelets and leukocytes). The percentage of positive RBCs and mean fluorescence intensity (MFI) of labeled RBCs (if more than 1% of total RBCs) was determined using FlowJo software v.10 (BD Life Sciences, Ashland, OR). For pharmacokinetic analysis, the flow data were normalized to 100% injected dose (MFI and percent labeled RBCs at 1 min) and fit into mono or biexponential decay using the pharmacokinetic modeling software Boomer.[21]

[2] = Lipid stability in RBCs in mouse serum in vitro; type: in vitro ADME, mouse (BALB/c serum); conditions: 3 h; for loss in MFI of labeled RBCs: 37 °C
Protocol: The nature of lipid linker affects in vivo retention. […] To compare the stability of different lipids in vitro, we measured the fluorescence of labeled RBCs after incubation in mouse serum for 3 h.
Mouse RBC labeled with lipids were incubated in mouse serum at 37 °C for up to 3 h. Intact RBCs were removed by centrifugation at 3000 g for 10 min at room temperature. RBCs were washed three times in 1% BSA/PBS to remove the remaining serum, and the labeling (MFI) was determined by flow cytometry as described above. The supernatant was analyzed for fluoresce released from RBC by dotting 2 μL on 0.45 μm nitrocellulose membrane and scanning with a Bio-Rad gel imager for Cy3 fluorescence at 540 nm excitation/560 nm emission. For TLC, 10 parts of methanol were added to 1 part of serum, and the tubes were centrifuged at 500 g for 10 min to pellet the protein fraction. The methanol phase was carefully collected, applied on TLC Silica Gel 60 F254 (EMD Millipore), and separated on the mobile phase chloroform: methanol (9:1) with 0.1% trifluoroacetic acid. The plates were scanned with a Bio-Rad gel imager for Cy3 fluorescence.

human RBCs = test: Labeling of human RBCs with lipids, flow cytometry; type: cell-based; conditions: lipids at 25 μM, 1 h; for percentage of labeled human RBCs (in words) / MFI of labeled human RBCs, fold higher than the rest of the lipids: flow cytometry
From the text: We acquired commercially available dialkyl indocarbocyanine lipids DiI-C18, DiI-C18:2, DiI-C16, DiI-C12 and synthesized additional headgroup derivatives of DiI-C18: DiI-amine, DiI-PEG5000, and DiI-PEG3400-methyltetrazine (Mtz). In addition, we prepared diacyl glycerol derivatives of Cy3: Cy3-C18, Cy3-C18:1, Cy3-C16, Cy3-C14, Cy3-C12, phospholipid derivative Cy3-distearoyl phosphatidylethanolamine (Cy3-DSPE), and Cy3-cholesterol. This library covers different lipid lengths, lipid types, and also headgroup-tail linkages. In addition, the library includes a limited number of headgroup derivatives relevant to drug delivery. Thus, PEGylated lipids have importance for erythrocyte PEGylation for blood camouflaging. Mtz is a click chemistry group that enables versatile modifications with biomolecules,[13] but also serves as a mimic of a small molecule payload (Mw 230 Da). To determine the labeling efficiency, we used fresh human RBCs from two healthy donors. RBCs were incubated with lipids at 25 μM for 1 h and washed and analyzed with flow cytometry for the percentage of labeled cells and mean fluorescence intensity (MFI). […] Select lipids were then used to label mouse RBCs. The data in Figure 2C,D show generally higher mouse RBC labeling efficiency (MFI and percent RBCs) than human RBCs. […] Finally, we checked the linearity of the Cy3 group signal when incorporated in RBCs.
Fresh human RBCs were obtained from discarded leukodepletion filters after processing sodium citrate anticoagulated donor blood at the Children’s Hospital Colorado Blood Donation Center. Institutional review board approval was not required for discarded material and anonymous samples. RBCs were eluted from leukodepletion filters by applying ACD buffer in the direction of the flow and were used within 2 h after blood collection. Sodium EDTA-anticoagulated mouse blood was collected from female or male BALB/c and NSG mice (8–10 weeks of age) via cardiac puncture, according to the animal protocol approved by the University of Colorado IACUC). Human RBCs were washed in ACD buffer and mouse RBC were washed in 1% BSA/PBS at room temperature at 3,000 g, total 3 times. Erythrocyte suspension (≈10^10/mL) was incubated with 25 μM lipids in ACD buffer (human RBCs) or 1% BSA/PBS (mouse RBCs) at 37 °C for 1 h and washed three times in ACD buffer or 1% BSA/PBS as described above. Labeling efficiency were determined by Guava easyCyte HT flow cytometer (Luminex Corp, Seattle, WA) as described later.

[3] = system: mouse peritoneal macrophages; test: Uptake of labeled RBCs by peritoneal macrophages; type: cell-based; conditions: 24 h incubation, fluorescent microscopy
Protocol: Fresh nonactivated macrophages were isolated and seeded in culture for 24 h in a 96-well culture-treated plate (Corning Inc.) as described.[19] On the next day, labeled RBCs were added (≈1 × 10^5 RBC/well) in triplicates, and macrophages were incubated for 24 h. In some experiments, PMF were prelabeled with 10 μM DiO for 2 h before addition of RBCs. After incubation, macrophages were washed with PBS 4 times to remove nonbound RBCs, fixed with 4% formalin, and stained with nuclear stain Hoechst. Cells were imaged under 100× magnification with Zeiss Axio Observer 5 epifluorescent microscope, and ≈7 microscopic fields were acquired. To verify RBC localization outside the cells, a Nikon Eclipse AR1HD inverted confocal microscope with 405, 488, 561, and 640 nm excitation lasers and corresponding emission filters was used. The percentage of DiI+ cells and rosette+ cells per field was determined manually and plotted with Prism.

[4] = parameters: method as in PMID 33532572; conditions: 48 h postinjection in mice ref 8a; cited from earlier work
[5] = Organ biodistribution of labeled RBCs (NIR imaging, confocal microscopy of liver and spleen); conditions: Day 40 (DiI-C18 RBCs), Day 29 (DiI-PEG3400Mtz RBCs)
Protocol: To determine the location of the label in the clearance organs, we imaged freshly excised livers and spleens of BALB/c mice injected with DiI-C18 RBCs and DiI-PEG3400Mtz RBCs (Day 40 and Day 29, respectively) with confocal microscope.
When labeled RBCs reached <1% of total RBCs (usually 10% or less of the injected dose), mice were injected with FITC-lectin and Hoechst and sacrificed with carbon dioxide (CO2) followed by cardiac perfusion. Fresh livers and spleens were placed on glass slides and imaged with Nikon Eclipse AR1HD inverted confocal microscope with Plan Apo 10 objective as described.[18]

mouse RBCs = test: Labeling of mouse RBCs with lipids, flow cytometry; type: cell-based, mouse (BALB/c); conditions: lipids at 25 μM, 1 h
From the text: We acquired commercially available dialkyl indocarbocyanine lipids DiI-C18, DiI-C18:2, DiI-C16, DiI-C12 and synthesized additional headgroup derivatives of DiI-C18: DiI-amine, DiI-PEG5000, and DiI-PEG3400-methyltetrazine (Mtz). In addition, we prepared diacyl glycerol derivatives of Cy3: Cy3-C18, Cy3-C18:1, Cy3-C16, Cy3-C14, Cy3-C12, phospholipid derivative Cy3-distearoyl phosphatidylethanolamine (Cy3-DSPE), and Cy3-cholesterol. This library covers different lipid lengths, lipid types, and also headgroup-tail linkages. In addition, the library includes a limited number of headgroup derivatives relevant to drug delivery. Thus, PEGylated lipids have importance for erythrocyte PEGylation for blood camouflaging. Mtz is a click chemistry group that enables versatile modifications with biomolecules,[13] but also serves as a mimic of a small molecule payload (Mw 230 Da). […] RBCs were incubated with lipids at 25 μM for 1 h and washed and analyzed with flow cytometry for the percentage of labeled cells and mean fluorescence intensity (MFI). […]
Fresh human RBCs were obtained from discarded leukodepletion filters after processing sodium citrate anticoagulated donor blood at the Children’s Hospital Colorado Blood Donation Center. […] Labeling efficiency were determined by Guava easyCyte HT flow cytometer (Luminex Corp, Seattle, WA) as described later.

[6] = parameters: species or system BALB/c mice; conditions: mouse
Protocol: Figure 6. Biodistribution and immune recognition of RBCs. A) RBCs labeled with DiR were injected in BALB/c mice and blood fluorescence was monitored with NIR scanner Li-COR Odyssey. […] D) Confocal microscopy images of fresh livers and spleens of mice injected with DiI-C18 and DiI-PEG3400Mtz (after in vivo labeling of blood vessels and nuclei with FITC-lectin and Hoechst). The lipid accumulates in extrasinusoidal cells in the spleen and predominantly in sinusoidal cells in the liver (i.e., endothelium and Kupffer cells). […] E) RBCs were incubated with fresh peritoneal macrophages for 24 h. […] F) Quantification of percent cells (per field) that contain intracellular DiI. G) Quantification of percent cells (per field) that contain DiI+ rosettes. P-value: ****0.0001; ***<0.001 2-sided t-test, alpha 0.05.

Structure (SMILES)	half-life ([1]; BALB/c)	loss in MFI of labeled RBCs [2]	circulation and retention of labeled RBCs (in words) ([1]; i.v., BALB/c)	percentage of labeled human RBCs (in words) (human RBCs)	MFI of labeled human RBCs, fold higher than the rest of the lipids (human RBCs)	further results
CC(C)CCCC(C)C1CCC2C3CC=C4CC(OC(=O)CCCCC[N+]5=C(C=CC=C6N(C)c7ccccc7C6(C)C)C(C)(C)c6ccccc65)CCC4(C)C3CCC12C (stereo not drawn) [Cy3-cholesterol]	300 h	less than 15%	longest circulation and retention	–	–	MFI of labeled RBCs, percent of initial ([1]; Day 22, 1 min postinjection = 100%): below 35%
CCCCCCCCCCCC(=O)OCC(CNC(=O)CCCCC[N+]1=C(/C=C/C=C2/N(C)c3ccccc3C2(C)C)C(C)(C)c2ccccc21)OC(=O)CCCCCCCCCCC (stereo not drawn) [Cy3-C12]	–	less than 15%	disappeared within a few days postinjection	highest percentage of labeled human RBCs	–	drop in MFI of labeled RBCs ([1]; Day 3, 1 min postinjection = 100%): 85%
CCCCCCCCCCCCCCCCN1/C(=C/C=C/C2=[N+](CCCCCCCCCCCCCCCC)c3ccccc3C2(C)C)C(C)(C)c2ccccc21 [DiI-C16]	–	–	–	–	2–3 fold	–
CCCCCCCCCCCCCC(=O)OCC(CNC(=O)CCCCC[N+]1=C(/C=C/C=C2/N(C)c3ccccc3C2(C)C)C(C)(C)c2ccccc21)OC(=O)CCCCCCCCCCCCC (stereo not drawn) [Cy3-C14]	–	–	–	highest percentage of labeled human RBCs	–	–
CCCCCCCCCCCCCCCCCCN1/C(=C/C=C/C2=[N+](CCCCCCCCCCCCCCCCCC)c3ccc(CN)cc3C2(C)C)C(C)(C)c2ccccc21 [DiI-amine]	–	–	–	–	–	labeling efficiency of human RBCs, fold lower than the parent DiI-C18 (human RBCs): ≈ 4 fold
CCCCCCCCCCCCCCCCCCN1C(=CC=CC=CC=CC2=[N+](CCCCCCCCCCCCCCCCCC)c3ccccc3C2(C)C)C(C)(C)c2ccccc21.[I-] [DiR-C18, 1,1′-Dioctadecyl-3,3,3′,3′-Tetramethylindotricarbocyanine Iodide]	–	–	–	–	–	in vivo life span of labeled RBCs [6]: over 30 days; terminal half life of labeled RBCs ([6]; in vivo): 175 h

Now from value to compound, other results behind:

half-life ([1]; BALB/c)	loss in MFI of labeled RBCs [2]	Structure (SMILES)	circulation and retention of labeled RBCs (in words) ([1]; i.v., BALB/c)	percentage of labeled human RBCs (in words) (human RBCs)	MFI of labeled human RBCs, fold higher than the rest of the lipids (human RBCs)	further results
> 1920 h	less than 15%	CCCCCCCCCCCCCCCCCCN1/C(=C/C=C/C2=[N+](CCCCCCCCCCCCCCCCCC)c3ccccc3C2(C)C)C(C)(C)c2ccccc21 [DiI-C18]	longest circulation and retention	–	2–3 fold	human RBC labeling efficiency (human RBCs): 28%; decrease in MFI of labeled RBCs ([1]; Day 20, 1 min postinjection = 100%): about 33%; macrophages with intracellular Cy3 fluorescence [3]: mostly intracellular uptake; lipid present in the RBC membrane [4]: up to 90%; location of Cy3 signal in liver and spleen, confocal microscopy [5]: predominant accumulation of Cy3 signal in extrasinusoidal spleen cells and some accumulation in the liver sinusoids
–	over 60%	CCCCCCCCCCCCCCCCCC(=O)OC[C@H](COP(=O)(O)OCCNC(=O)CCCCC[N+]1=C(/C=C/C=C2/N(C)c3ccccc3C2(C)C)C(C)(C)c2ccccc21)OC(=O)CCCCCCCCCCCCCCCCC [Cy3-DSPE, Cy3-distearoyl phosphatidylethanolamine]	disappeared within a few days postinjection	highest percentage of labeled human RBCs	2–3 fold	human RBC labeling efficiency (human RBCs): 100%; TLC analysis of serum supernatant [2]: presence of intact Cy3-DSPE along with some degradation products; fluorescence released in serum from labeled RBCs, relative to DiI-C18 RBCs [2]: five times more fluorescence released in serum
72 h	less than 15%	CCCCCCCCCCCCN1/C(=C/C=C/C2=[N+](CCCCCCCCCCCC)c3ccccc3C2(C)C)C(C)(C)c2ccccc21 [DiI-C12]	–	highest percentage of labeled human RBCs	2–3 fold	human RBC labeling efficiency (in words) (human RBCs): highest efficiency; mouse RBC labeling efficiency (in words) (mouse RBCs): highest efficiency; decrease in MFI of labeled RBCs (in words) ([1]; i.v., BALB/c): much faster decrease in MFI than DiI-C18 and Cy3-cholesterol

— paper PMC9797212, “Surface Modification of Erythrocytes with Lipid Anchors: Structure–Activity Relationship for Optimal Membrane Incorporation, in vivo Retention, and Immunocompatibility” (Advanced nanobiomed research, 2022)
